Results as given in US20110040170A1, “ENDOSCOPIC IMAGING PHOTODYNAMIC THERAPY SYSTEM AND METHODS OF USE” (YEDA RESEARCH AND DEVELOPMENT CO., LTD., priority 2008, published 2011).
Values joined by “and” are separate entries in the source; they are usually repeats but may differ in a detail not shown here. Identical values can stand only once. “Also recorded” adds a separate entry of the source.

Tests used:
uterine horn = details: cited from earlier work
extrauterine pregnancy = details: selected patients (mass less than 4 cm, no fetal heart beat, low β-hCG); cited from earlier work
feto-placental unit [1] = assay: Histological analysis of feto-placental units and adjacent uterus after in utero PDT; assay type: in vivo, Wistar rats; details: E16
Description: (iv) In vivo PDT protocol. A pregnant rat (E14) was anesthetized by isoflurane inhalation using the IMPAC6 system (VetEquip Inc., Pleasanton, Calif., USA) and placed on its back; the lower abdomen was shaved, washed with 70% ethanol and draped with sterile gauze. A midline incision (approximately 2 cm in length) in the lower abdomen was performed by cutting the skin and abdominal-muscle layers separately. Using round forceps, the uterus was gently drawn out from the abdominal cavity and placed on the gauze. The exposed uterus was continuously irrigated with sterile 0.9% NaCl solution during the procedure (for layout, see FIGS. 5A, 5B). One embryo was randomly selected for treatment and positioned with the placenta facing up. The laser beam was then directed to the exposed placental pole and the beam positioned for subsequent therapeutic illumination (6 mm light spot diameter) using the built-in visible (630 nm, 3 mW) aiming beam. No shielding of neighboring embryos was required. The photosensitizer PMRDA (50 μg/30 μl sterile saline) was delivered by trans-uterine injection (30G, 0.3 ml, insulin syringe) into the placenta. Following a drug/light time interval (DLTI) of 120 sec, illumination (100 mW/cm^2) was delivered (300 sec) to the placenta in a trans-uterine manner from above, perpendicular to the uterus (FIG. 5A). Upon completion of the PDT protocol, the uterus was eased back into the abdominal cavity. The abdominal facia was sutured using sterile 4-0 braided silk thread and the skin was clipped using 9 mm surgical clips. Anesthesia was discontinued and the rat was placed in a cage and closely monitored for at least 48 h. Animals received analgesia (Oxycod®, 6 ml/l) in their drinking water for at least 48 h. Controls: Dark control (DC): placental administration of photosensitizer without illumination. Light control (LC): placental sham injection of sterile vehicle (saline), followed by illumination with the respective light dose. Untreated control (UN): all untreated fetoplacental units in a treated rat.
(viii) Histology. […]

[2] = rat
Description: (vi) Post PDT fertility assessment. Treated rats were allowed to reach parturition and pup weaning (P21). Fertile males were then introduced into the cages and rats were allowed to mate until pregnancy could be verified by daily vaginal smears and palpation. Pregnancy in both uterine horns was verified by magnetic resonance imaging (MRI) and/or by animal sacrifice and macroscopic examination.

uterus = assay: Histological analysis of post-PDT uteri for long-term damage; assay type: in vivo, Wistar rats
Description: (viii) Histology. Following animal sacrifice, the abdomen was surgically opened, the uterus was tied-off at the cervix, removed and placed in Carnoy's fixative (6:3:1 ethanol, chloroform and acetic acid, by vol.), or Tris-buffered Zn fixative (2.8 mM calcium acetate, 22.8 mM zinc acetate, and 36.7 mM zinc chloride in 0.1M Tris buffer, pH 7.4) for 48-72 h. Fixed tissue samples were placed in 70% ethanol, paraffin embedded and slides were prepared. Slides were stained with hematoxylin and eosin (H&E) Immunohistochemical staining of the specific cell markers was done using the following antibodies: sheep anti-von Willebrand Factor (vWF)] (Serotec, Oxford, UK), mouse anti-pancytokeratin (clone AE1/AE3, Zymed, San-Francisco, USA) and mouse anti-human smooth muscle actin (SMA) (a SMC marker) (clone 1A4, Serotec, Oxford, UK).
Following verification of the functional integrity of post-PDT rat uteri, histological analysis was conducted in order to identify possible long-term damage resulting from the treatment. For this purpose, uteri in post-PDT and control manipulated rats were examined approximately 10 days after parturition (17-18 days after treatment). The respective uteri were stained by standard H&E (FIGS. 8B and 8F) as well as by anti-SMA antibody (a SMC marker, indicative of uterine wall integrity) (FIGS. 8C and 8G), anti-pan-cytokeratin antibody (an epithelial cell marker, indicative of endometrial integrity and absence of adhesions) (FIGS. 8D and 8H) and for vWF factor (an endothelial cell marker, illustrating blood vessel integrity) (FIGS. 8E and 8I). Uteri featured mild to moderate organizing hemorrhages in the endometrium and mesometrium, typical of post-gravid uteri (uteri after parturition). The only type of lesion found was the presence of a low number of hemosiderin-laden macrophages (siderophages) in the endometrium (where such a presence is normal) and in the mesometrium. This finding (siderophages) was highest in the DC uterus and milder in the post PDT uterus.

feto-placental unit [3] = assay: In vivo placental PDT of a single feto-placental unit in the pregnant rat
Description: Materials and Methods (i) Animals. Pregnant 10-week old female Wistar rats (litter sizes of 10±2) (Harlan Laboratories, Rehovot, Israel) were delivered to the lab on embryonic day 7-12 (E7-E12) and allowed acclimatization of at least 48 h. All animal protocols were approved by the Weizmann Institutional Animal Care and Use Committee (IACUC).
(ii) Photosensitizer. Palladium 3^1-oxo-15 -methoxycarbonylmethylrhodobacterio-chlorin-13^1,17^3-di(2-N2-dimethylaminoethyl) amide (PMRDA), a water-soluble positively charged Pd-bacteriochlorophyll derivative disclosed in WO 2005/120573, was either synthesized in the inventor's laboratory by known methods or kindly provided by Steba Laboratories Ltd. (Israel), and used as a photosensitizer. The PMRDA was obtained as powder and kept under Argon (Ar) at −20° C. in the dark. Thereafter it was dissolved in methanol (MeOH) and, following spectrophotometric determination of concentration, was divided into aliquots, dried under Ar and kept at −20° C. in the dark until use.
(iii) Light source. A 1W 755 nm laser (CeramOptec, Bonn, Germany) was used. Light was delivered via a diffuser tipped optic fiber (Medlight S.A., Ecublens, Switzerland).
(iv) In vivo PDT protocol. A pregnant rat (E14) was anesthetized by isoflurane inhalation using the IMPAC6 system (VetEquip Inc., Pleasanton, Calif., USA) and placed on its back; the lower abdomen was shaved, washed with 70% ethanol and draped with sterile gauze. A midline incision (approximately 2 cm in length) in the lower abdomen was performed by cutting the skin and abdominal-muscle layers separately. Using round forceps, the uterus was gently drawn out from the abdominal cavity and placed on the gauze. The exposed uterus was continuously irrigated with sterile 0.9% NaCl solution during the procedure (for layout, see FIGS. 5A, 5B). One embryo was randomly selected for treatment and positioned with the placenta facing up. […] Anesthesia was discontinued and the rat was placed in a cage and closely monitored for at least 48 h. […]

[4] = subsequent fertility after 5-ALA PDT

Question: What does the source list for `NCC(=O)CCC(=O)O` [5-ALA, 5-aminolevulinic acid]?
Answer: treated animals that did not conceive following PDT (uterine horn; 5-ALA administered E10, examined E17): one third; fewer implanted embryos in the treated horn (uterine horn; [4]): ~28%; treated animals that developed pregnancies in the treated horn subsequently (uterine horn; [4]): 66.2%; pregnancy outcome in the treated uterine horn (uterine horn; systemic 5-ALA, whole horn illuminated): loss of all embryos in the treated uterine horn; also recorded: termination of all pregnancies in the treated horn

Question: For `CN(Cc1cnc2nc(N)nc(N)c2n1)c1ccc(C(=O)N[C@@H](CCC(=O)O)C(=O)O)cc1` [methotrexate, Methotrexate], which “success rate of medical therapy of EUP” value (extrauterine pregnancy) is on record?
Answer: 70-95%

Question: Which “placental necrosis, share of placental mass involved” value (feto-placental unit [1]; post-PMRDA-PDT placenta) does the source give for “Palladium 3^1-oxo-15 -methoxycarbonylmethylrhodobacterio-chlorin-13^1,17^3-di(2-N2-dimethylaminoethyl) amide [PMRDA]” here?
Answer: approximately 70%

Question: What about the “histological state of the embryo” value (feto-placental unit [1]; post-PMRDA-PDT) of the same compound?
Answer: fully necrotic embryo

Question: What about the “state of the uterus adjacent to the treated placenta” value (feto-placental unit [1]; post-PMRDA-PDT) of the same compound?
Answer: appeared viable

Question: What about the “fertility following local in vivo placental PDT” value [2] of the same compound?
Answer: fertility of the rats is preserved

Question: And the “ability to conceive after PDT, parturition and re-mating” value ([2]; in vivo)?
Answer: all six rats pregnant

Question: And the “litter sizes of second pregnancy” value ([2]; in vivo)?
Answer: 6-11

Question: What about the “parturition of the remaining litter after treatment” value ([2]; in vivo) of the same compound?
Answer: All six rats achieved normal parturition

Question: What about the “pups delivered at parturition after treatment” value ([2]; in vivo) of the same compound?
Answer: 6 to 11 pups

Question: What about the “siderophages in endometrium and mesometrium, post PDT uterus” value (uterus; PMRDA with illumination) of the same compound?
Answer: milder

Question: And the “siderophages in endometrium and mesometrium, DC uterus” value (uterus; PMRDA without illumination)?
Answer: highest

Question: And the “necrosis / pathological findings in post-PDT uteri” value (uterus; uteri after parturition, H&E, SMA, pan-cytokeratin, vWF staining)?
Answer: No necrotic areas were found; also recorded: no pathological findings

Question: And the “pregnancy termination (embryo death rate) following PMRDA-PDT” value (feto-placental unit [3]; 50 μg/30 μl intra-placental injection at E14, DLTI 120 sec, 755 nm 100 mW/cm^2 for 300 sec, assessed E16, 11/14 embryos)?
Answer: ~80% and 78.6%

Question: What about the “embryo mortality rate, dark control (DC)” value (feto-placental unit [3]; placental administration of photosensitizer without illumination, E14, assessed E16, 3/8 embryos) of the same compound?
Answer: 37.5%

Question: And the “morbidity to the treated pregnant rat” value (feto-placental unit [3]; rat, in vivo)?
Answer: did not result in noticeable morbidity
